Test results reported in PubChem BioAssay AID1918958 (Molecular Pharmacology Branch, DTP, NCI, 2023).

Tested on: NCI-H196 complex spheroid viability
Assay: Anticancer human tumor NCI-H196 cell line growth inhibition [LSD1];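 note: spheroids exposed to agents for 7 days before readout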;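 for viability, T/C: 100% = DMSO vehicle control viability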
Conditions: for IC50: curve of first compound; for viability, T/C: stronger effect = lower value
Source text: Multicellular complex tumor spheroid response to LSD1 Inhibitor Iadademstat in combination with a variety of drugs and investigational agents in selected tumor cell lines
The current study was undertaken to assess response to LSD1 inhibitors in combination with standard-of-care drugs and investigational agents in solid tumor complex spheroid models as well as in the K-562 leukemia. Complex spheroids include a stromal component modeled by human endothelial cells (HUVEC) and fibroblasts modeled by human mesenchymal stem cells (MSCs). The concentration ranges selected for each drug and investigational agent were based upon clinically achievable concentrations if the clinical Cmax of the agent was known.
Compounds. The drugs and investigational agents used in this study are listed on Table 1. All of the agents used, including staurosporine (NSC755774) and gemcitabine (NSC613327), were obtained from the Developmental Therapeutics Program, NCI. FDA-approved anticancer drugs are available from the NCI at http://dtp.nci.nih.gov/branches/dscb/oncology_drugset_explanation.html. Drugs and investigational agents were >95% pure by proton nuclear magnetic resonance (NMR) and liquid chromatography/mass spectrometry (LC/MS). Stock solutions were prepared at 400x in DMSO, stored at -70 degrees C, and diluted in fresh medium prior to their use. The final concentration of DMSO in cell culture wells never exceeded 0.25% (v/v). The FDA-approved anticancer drug set is available from the Developmental Therapeutics Program at https://dtp.cancer.gov/organization/dscb/obtaining/available_plates.htm. All drugs and investigational agents were tested over a range starting from a high concentration at or near the clinical Cmax and decreasing in half-log increments. If the clinical Cmax for an agent had not been determined, the highest concentration tested was 10 microM.
Cell Lines. The patient-derived cancer cell (PDC) lines: 292921-168-R-J2-PDC, K24384-001-R-PDC, and 521955-158-R2-J5-PDC pancreatic carcinomas, 556581-035-R-J1 ovarian carcinoma, 324938-238-R-J1-PDC, 855422-203-R-J1-PDC and 883617-216-R-J1-PDC urothelial bladder carcinomas, 743489-274-T-PDC renal cell carcinoma, 138582-R-J1 Merkel cell tumor, K60290-347-R-J1 and K57222-313-R-J1-PDC glioblastomas, 653999-131-R-J2-PDC, LG0703-F948-PDC, and 349418-098-R-PDC non-small cell lung carcinomas, 885512-296-R-J2-PDC, 171881-019-R-J1-PDC breast carcinomas and 186277-243-T-J2-PDC and 233499-124-R-J2-PDC colon carcinomas were obtained from the NCI Patient-Derived Models Repository (PDMR, https://pdmr.cancer.gov). The established cell lines NCI/ADR-RES (RRID:CVCL_14520 and OVCAR-5 (RRID:CVCL_1628) ovarian carcinomas, 786-O (RRID:CVCL_1051) and A498 (RRID:CVCL_A498) renal cell carcinoma, NCI-H211 (ATCC, cat. CRL-5824; RRID:CVCL_1529), NCI-H196 (ATCC, cat. CRL-5823, RRID:CVCL_1509), SW 1271 (ATCC, cat. CRL-2177, RRID:CVCL_1716) and NCI-H1876 (ATCC, cat. CRL-5902, RRID:CVCL_1503) small cell lung carcinomas, MDA-MB-231 (RRID:CVCL_0062) and MDA-MB-468 (RRID:CVCL_0419)breast carcinomas (10-12). Pooled donor human umbilical vein endothelial cells (HUVEC, Lonza, cat. CC-2519) and human mesenchymal stem cells (hMSC, Lonza, cat. PT-2501) were purchased from Lonza (Walkersville, MD).
Cell Culture. All cells were maintained in an incubator at 37 degrees C and 5% CO2 with 95% humidity. The PDC lines were cultured according to standard operating procedures established by the NCI PDMR (https://pdmr.cancer.gov). Briefly all PDCs were thawed and cultured in Matrigel-coated flasks prepared with a working solution of 1X Ham's F-12 nutrient mix, without supplementation (Invitrogen, Waltham, MA, cat. 11765054), 100 U/mL penicillin-streptomycin (Invitrogen, cat. 15140122), and 2.5% Matrigel (Corning Inc., Corning, NY, cat. 354248) for the first three passages. […]

[1] = second compound 0.1 µM, first compound 0.00316 µM
[2] = second compound 0.1 µM, first compound 0.01 µM
[3] = second compound 0.1 µM, first compound 0.0316 µM
[4] = second compound 0.1 µM, first compound 0.1 µM
[5] = second compound 0.316 µM, first compound 0.00316 µM
[6] = second compound 0.316 µM, first compound 0.01 µM
[7] = second compound 0.316 µM, first compound 0.0316 µM
[8] = second compound 0.316 µM, first compound 0.1 µM
[9] = second compound 1 µM, first compound 0.00316 µM
[10] = second compound 1 µM, first compound 0.01 µM
[11] = second compound 1 µM, first compound 0.0316 µM
[12] = second compound 1 µM, first compound 0.1 µM
[13] = second compound 3.16 µM, first compound 0.00316 µM
[14] = second compound 3.16 µM, first compound 0.01 µM
[15] = second compound 3.16 µM, first compound 0.0316 µM
[16] = second compound 3.16 µM, first compound 0.1 µM
[17] = second compound 10 µM, first compound 0.00316 µM
[18] = second compound 10 µM, first compound 0.01 µM
[19] = second compound 10 µM, first compound 0.0316 µM
[20] = second compound 10 µM, first compound 0.1 µM

For `CC[C@@]1(O)C(=O)OCc2c1cc1n(c2=O)Cc2cc3c(CN(C)C)c(O)ccc3nc2-1` + NC1CC1c1ccc(-c2cccc(O)c2)cc1, the IC50 (second compound 0.1 µM) was greater than 0.1 µM, the IC50 (second compound 0.316 µM) was greater than 0.1 µM and the IC50 (second compound 1 µM) was greater than 0.1 µM. For the same molecule, the IC50 (second compound 3.16 µM) was greater than 0.1 µM, the IC50 (second compound 10 µM) was greater than 0.1 µM and the viability, T/C (second compound 0.1 µM, first compound 0.000316 µM) was 95.1%. The viability, T/C (second compound 0.1 µM, first compound 0.001 µM) was 101%, the viability, T/C [1] was 115% and the viability, T/C [2] was 105%. It also gave a viability, T/C [3] of 95.7%, a viability, T/C [4] of 99.5% and a viability, T/C (second compound 0.316 µM, first compound 0.000316 µM) of 97.3%. For the same molecule, the viability, T/C (second compound 0.316 µM, first compound 0.001 µM) was 104%, the viability, T/C [5] was 102% and the viability, T/C [6] was 109%. For the same molecule, the viability, T/C [7] was 109%, the viability, T/C [8] was 95.9% and the viability, T/C (second compound 1 µM, first compound 0.000316 µM) was 92.4%. The viability, T/C (second compound 1 µM, first compound 0.001 µM) was 93.8%, the viability, T/C [9] was 104% and the viability, T/C [10] was 100%. It also gave a viability, T/C [11] of 103%, a viability, T/C [12] of 94.8% and a viability, T/C (second compound 3.16 µM, first compound 0.000316 µM) of 90.7%. It also gave a viability, T/C (second compound 3.16 µM, first compound 0.001 µM) of 95.3%, a viability, T/C [13] of 92.2% and a viability, T/C [14] of 101%. For the same molecule, the viability, T/C [15] was 91%, the viability, T/C [16] was 82.6% and the viability, T/C (second compound 10 µM, first compound 0.000316 µM) was 88.8%. For the same molecule, the viability, T/C (second compound 10 µM, first compound 0.001 µM) was 90.4%, the viability, T/C [17] was 102% and the viability, T/C [18] was 115%. It also gave a viability, T/C [19] of 98.2% and a viability, T/C [20] of 78.2%.

For `COc1cc(C2c3cc4c(cc3C(OC3OC5COC(C)OC5C(O)C3O)C3COC(=O)C23)OCO4)cc(OC)c1O` (stereo not given) + NC1CC1c1ccc(-c2cccc(O)c2)cc1, the IC50 (second compound 0.1 µM) was greater than 3 µM, the IC50 (second compound 0.316 µM) was greater than 3 µM and the IC50 (second compound 1 µM) was greater than 3 µM. The IC50 (second compound 3.16 µM) was greater than 3 µM, the IC50 (second compound 10 µM) was greater than 3 µM and the viability, T/C (second compound 0.1 µM, first compound 0.00949 µM) was 95.2%. The viability, T/C (second compound 0.1 µM, first compound 0.03 µM) was 97%, the viability, T/C (second compound 0.1 µM, first compound 0.0949 µM) was 109% and the viability, T/C (second compound 0.1 µM, first compound 0.3 µM) was 101%. It also gave a viability, T/C (second compound 0.1 µM, first compound 0.949 µM) of 85.1%, a viability, T/C (second compound 0.1 µM, first compound 3 µM) of 69.1% and a viability, T/C (second compound 0.316 µM, first compound 0.00949 µM) of 98.5%. The viability, T/C (second compound 0.316 µM, first compound 0.03 µM) was 100%, the viability, T/C (second compound 0.316 µM, first compound 0.0949 µM) was 105% and the viability, T/C (second compound 0.316 µM, first compound 0.3 µM) was 102%. It also gave a viability, T/C (second compound 0.316 µM, first compound 0.949 µM) of 88.2%, a viability, T/C (second compound 0.316 µM, first compound 3 µM) of 65.1% and a viability, T/C (second compound 1 µM, first compound 0.00949 µM) of 90.9%. It also gave a viability, T/C (second compound 1 µM, first compound 0.03 µM) of 104%, a viability, T/C (second compound 1 µM, first compound 0.0949 µM) of 117% and a viability, T/C (second compound 1 µM, first compound 0.3 µM) of 121%. For the same molecule, the viability, T/C (second compound 1 µM, first compound 0.949 µM) was 84.1%, the viability, T/C (second compound 1 µM, first compound 3 µM) was 61.8% and the viability, T/C (second compound 3.16 µM, first compound 0.00949 µM) was 92.8%. The viability, T/C (second compound 3.16 µM, first compound 0.03 µM) was 92.4%, the viability, T/C (second compound 3.16 µM, first compound 0.0949 µM) was 104% and the viability, T/C (second compound 3.16 µM, first compound 0.3 µM) was 91.4%. For the same molecule, the viability, T/C (second compound 3.16 µM, first compound 0.949 µM) was 76.9%, the viability, T/C (second compound 3.16 µM, first compound 3 µM) was 53.7% and the viability, T/C (second compound 10 µM, first compound 0.00949 µM) was 90%. It also gave a viability, T/C (second compound 10 µM, first compound 0.03 µM) of 101%, a viability, T/C (second compound 10 µM, first compound 0.0949 µM) of 102% and a viability, T/C (second compound 10 µM, first compound 0.3 µM) of 90.8%. For the same molecule, the viability, T/C (second compound 10 µM, first compound 0.949 µM) was 78.5% and the viability, T/C (second compound 10 µM, first compound 3 µM) was 59.9%.

Work on `Nc1ncn(C2CC(O)C(CO)O2)c(=O)n1` (stereo not given) + NC1CC1c1ccc(-c2cccc(O)c2)cc1 yielded an IC50 (second compound 0.1 µM) greater than 1 µM, an IC50 (second compound 0.316 µM) greater than 1 µM and an IC50 (second compound 1 µM) greater than 1 µM. For the same molecule, the IC50 (second compound 3.16 µM) was greater than 1 µM, the IC50 (second compound 10 µM) was greater than 1 µM and the viability, T/C [1] was 98.6%. The viability, T/C [2] was 99.9%, the viability, T/C [3] was 99.7% and the viability, T/C [4] was 87.9%. The viability, T/C (second compound 0.1 µM, first compound 0.316 µM) was 99.5%, the viability, T/C (second compound 0.1 µM, first compound 1 µM) was 97.9% and the viability, T/C [5] was 97.5%. For the same molecule, the viability, T/C [6] was 95.6%, the viability, T/C [7] was 98.9% and the viability, T/C [8] was 89%. For the same molecule, the viability, T/C (second compound 0.316 µM, first compound 0.316 µM) was 94.2%, the viability, T/C (second compound 0.316 µM, first compound 1 µM) was 97% and the viability, T/C [9] was 98.4%. It also gave a viability, T/C [10] of 100%, a viability, T/C [11] of 98.7% and a viability, T/C [12] of 91.2%. It also gave a viability, T/C (second compound 1 µM, first compound 0.316 µM) of 96.4%, a viability, T/C (second compound 1 µM, first compound 1 µM) of 97.7% and a viability, T/C [13] of 96.4%. It also gave a viability, T/C [14] of 95%, a viability, T/C [15] of 98.1% and a viability, T/C [16] of 88.9%. It also gave a viability, T/C (second compound 3.16 µM, first compound 0.316 µM) of 106%, a viability, T/C (second compound 3.16 µM, first compound 1 µM) of 95.9% and a viability, T/C [17] of 105%. It also gave a viability, T/C [18] of 106%, a viability, T/C [19] of 96.3% and a viability, T/C [20] of 98.4%. The viability, T/C (second compound 10 µM, first compound 0.316 µM) was 95.4% and the viability, T/C (second compound 10 µM, first compound 1 µM) was 95.2%.
